The text below walks through data of ChEMBL document CHEMBL3627615, “Discovery of the disubstituted oxazole analogues as a novel class anti-tuberculotic agents against MDR- and XDR-MTB” (Bioorg Med Chem Lett, 2015).

≈ marks a conversion by molar mass, not a printed value.

In test [1] the test system is Mycobacterium tuberculosis. The experiment in a line: Antimycobacterial activity against multidrug-resistant Mycobacterium tuberculosis FJ05120 after 3 to 4 weeks by microplate alamar blue assay. The class given is functional. (In general: Resazurin is reduced to fluorescent resorufin, in cell work by metabolically active cells.)
In test [2] the test system is Mycobacterium tuberculosis. The experiment in a line: Antimycobacterial activity against extensively drug-resistant Mycobacterium tuberculosis FJ05195 after 3 to 4 weeks by microplate alamar blue assay. The class given is functional.

In the case of `Cc1ccc(C(=O)C2CCN(Cc3coc(-c4ccc(F)cc4)n3)CC2)cc1C`, the MIC90 in test [1] and in test [2] was 8 µg/mL (≈ 20.4 µM) each time.
For the compound `O=C(c1ccccc1)C1CCN(Cc2coc(-c3ccc(F)cc3)n2)CC1`, the MIC90 in test [1] and in test [2] was 4 µg/mL (≈ 11 µM) in each case.
Turning to `CC[C@@H](CO)NCCN[C@@H](CC)CO` [ETHAMBUTOL], the MIC90 (usually the lowest concentration that inhibits either 90% of growth or 90% of the strains tested, depending on the study) in test [1] is 1 µg/mL (≈ 4.89 µM); in test [2], 8 µg/mL (≈ 39.2 µM).
Taken in the same sequence, the figures for `COc1ccc(C(=O)C2CCN(Cc3coc(-c4ccc(F)cc4)n3)CC2)cc1` were 8 µg/mL (≈ 20.3 µM) and 8 µg/mL (≈ 20.3 µM).
On to `O=C(c1ccc2c(c1)OCCO2)C1CCN(Cc2coc(-c3ccccc3)n2)CC1`, for which the MIC90 in test [1] and in test [2] was 8 µg/mL (≈ 19.8 µM) throughout.
For `O=C(c1ccc2c(c1)OCCO2)C1CCN(Cc2coc(-c3ccc(C(F)(F)F)cc3)n2)CC1`, the MIC90 in test [1] and in test [2] was 64 µg/mL (≈ 135 µM) each time.
As to `Cc1ccc(-c2nc(CN3CCC(C(=O)c4ccc5c(c4)OCCO5)CC3)co2)cc1`, the MIC90 in test [1] and in test [2] was 64 µg/mL (≈ 153 µM) throughout.
As to `O=C(c1ccc2c(c1)OCCO2)C1CCN(Cc2coc(-c3cccnc3)n2)CC1`, the MIC90 in test [1] and in test [2] was 32 µg/mL (≈ 78.9 µM) throughout.
On to `O=C(c1ccc2c(c1)OCCO2)C1CCN(Cc2coc(-c3ccccc3F)n2)CC1`, for which the MIC90 in test [1] came out at 16 µg/mL (≈ 37.9 µM); in test [2], 8 µg/mL (≈ 18.9 µM).
On to `Cc1ccc(C(=O)C2CCN(Cc3coc(-c4ccc(F)cc4)n3)CC2)cc1`, for which the MIC90 in test [1] is 16 µg/mL (≈ 42.3 µM); in test [2], 8 µg/mL (≈ 21.1 µM).
For `O=C(c1ccc2c(c1)OCCO2)C1CCN(Cc2coc(-c3ccc(Br)cc3)n2)CC1` the same measures were 8 µg/mL (≈ 16.6 µM) and 8 µg/mL (≈ 16.6 µM).
Regarding `CC(C)(C)c1ccc(-c2nc(CN3CCC(C(=O)c4ccc5c(c4)CCCC5)CC3)co2)cc1`, the MIC90 in test [1] and in test [2] was 4 µg/mL (≈ 8.76 µM) throughout.
As to `O=C(c1ccc2c(c1)OCCO2)C1CCN(Cc2csc(-c3ccc(Cl)cc3)n2)CC1`, the MIC90 in test [1] and in test [2] was more than 128 µg/mL in each case.
`O=C(c1ccc2c(c1)OCCO2)C1CCN(Cc2coc(-c3ccc(F)cc3)n2)CC1`: the MIC90 in test [1] and in test [2] was 8 µg/mL (≈ 18.9 µM) in each case.
As to `CO[C@H]1/C=C/O[C@@]2(C)Oc3c(C)c(O)c4c(O)c(c(/C=N/N5CCN(C)CC5)c(O)c4c3C2=O)NC(=O)/C(C)=C\C=C\[C@H](C)[C@H](O)[C@@H](C)[C@@H](O)[C@@H](C)[C@H](OC(C)=O)[C@@H]1C` [RIFAMPIN], the MIC90 in test [1] and in test [2] was more than 256 µg/mL each time.
Take `O=C(c1ccc2c(c1)OCCO2)C1CCN(Cc2coc(-c3ccoc3)n2)CC1`: the MIC90 in test [1] was 32 µg/mL (≈ 81.1 µM); in test [2], 64 µg/mL (≈ 162 µM).
Taken in the same sequence, the figures for `O=C(c1ccc(F)c(F)c1)C1CCN(Cc2coc(-c3ccc(F)cc3)n2)CC1` were 8 µg/mL (≈ 20 µM) and 8 µg/mL (≈ 20 µM).
For `O=C(c1ccc2c(c1)OCCO2)C1CCN(Cc2cc(-c3ccc(F)cc3)on2)CC1` the same measures were more than 128 µg/mL and more than 128 µg/mL.
In the case of `O=C(c1ccc2c(c1)OCCO2)C1CCN(Cc2coc(-c3ccc(Cl)cc3)n2)CC1`, the figures for the MIC90 in test [1] and in test [2] were 8 µg/mL (≈ 18.2 µM) and 4 µg/mL (≈ 9.11 µM), respectively.
Taken in the same sequence, the figures for `NNC(=O)c1ccncc1` [ISONIAZID] were 1 µg/mL (≈ 7.29 µM) and 4 µg/mL (≈ 29.2 µM).
For `COc1ccc(C(=O)C2CCN(Cc3coc(-c4ccc(F)cc4)n3)CC2)cc1OC` the same measures were 16 µg/mL (≈ 37.7 µM) and 16 µg/mL (≈ 37.7 µM).
Regarding `CN[C@@H]1[C@H](O[C@H]2[C@H](O[C@H]3[C@H](O)[C@@H](O)[C@H](N=C(N)N)[C@@H](O)[C@@H]3N=C(N)N)O[C@@H](C)[C@]2(O)C=O)O[C@@H](CO)[C@H](O)[C@H]1O` [STREPTOMYCIN], the results for the MIC90 in test [1] and in test [2] were less than 0.5 µg/mL and 64 µg/mL (≈ 110 µM), respectively.
Taken in the same sequence, the figures for `COc1ccc(-c2nc(CN3CCC(C(=O)c4ccc5c(c4)OCCO5)CC3)co2)cc1` were 8 µg/mL (≈ 18.4 µM) and 4 µg/mL (≈ 9.21 µM).
Turning to `O=C(c1ccc2c(c1)OCCO2)C1CCN(Cc2coc(-c3ccc(F)c(F)c3)n2)CC1`, the MIC90 in test [1] and in test [2] was 8 µg/mL (≈ 18.2 µM) throughout.
In the case of `O=C(c1ccc2c(c1)CCCC2)C1CCN(Cc2coc(-c3ccc(F)cc3)n2)CC1`, the MIC90 in test [1] and in test [2] was 4 µg/mL (≈ 9.56 µM) each time.
Take `O=C(c1ccc2c(c1)OCCO2)C1CCN(Cc2coc(-c3cccc(F)c3)n2)CC1`: the MIC90 in test [1] was found to be 16 µg/mL (≈ 37.9 µM); in test [2], 8 µg/mL (≈ 18.9 µM).
For `CC(C)(C)c1ccc(-c2nc(CN3CCC(C(=O)c4ccc5c(c4)OCCO5)CC3)cs2)cc1` the same measures were more than 128 µg/mL and more than 128 µg/mL.
On to `CC(C)(C)c1ccc(-c2nc(CN3CCC(C(=O)c4ccc5c(c4)OCCO5)CC3)co2)cc1`, for which the MIC90 in test [1] stood at 2 µg/mL (≈ 4.34 µM); in test [2] it was 1 µg/mL (≈ 2.17 µM).
For `O=C(c1ccc2c(c1)OCCO2)C1CCN(Cc2coc(-c3ccco3)n2)CC1` the same measures were 32 µg/mL (≈ 81.1 µM) and 32 µg/mL (≈ 81.1 µM).
